Measured values published in patent US7786054B2, “Biocide for well stimulation and treatment fluids” (Kemira Chemicals, Inc., priority 2006, dated 2010).
Entries after “also recorded” stand apart in the source; their conditions may differ.

Experiments:
[1] = test system: acid producing bacteria (AB); assay: Biocidal effectiveness on acid producing bacteria in spiked frac pond water, serial dilution counts over 180 days with challenges; format: cell-based
Protocol: (§1) In this example, the biocidal effectiveness on sulfate reducing bacteria (SRB) and acid producing bacteria (AB) for biocide formulations containing CB Thione and WB Thione to Glut and THPS was examined.
(§2) A one gallon sample was separated from a five gallon sample of frac pond water for these studies. The frac pond water sample included SRB and AB. Ten mL of a 10^9 cfu/mL inoculum of SRB grown in anaerobic API broth containing an O2 scavenger and 10 mL of a 10^9 cfu/mL inoculum of AB grown in anaerobic phenol red (anPR) broth containing an O2 scavenger were added to the one gallon frac pond water sample, mixed well and allowed to incubate for a period of time sufficient to achieve a desired number of SRB and AB. All broth media for inoculum and serial dilution counts in this study was made at 4% salinity to match the salinity of the original frac pond water measured by total dissolved solids testing. To increase nutrient value and to emulate on-site friction reducing additives, a 30 weight % acrylic acid, 70% acrylamide copolymer was added to the inoculated gallon of frac pond water sample at 300 ppm and then referred to as the spiked frac pond water sample. The spiked sample was then divided into 99.0 g aliquots for testing the effect of various biocides at various concentrations on the SRB and AB over a 180 day contact time. One spiked aliquot would serve as the control sample to which no biocide would be added. Challenges were made to all aliquots using 0.5 mL of 10^8 SRB and 0.5 mL, of 10^8 AB at 14, 28, and 129 days contact time.
(§3) The biocides included a 20% water based Thione (WB Thione), a 24% caustic based Thione (CB Thione), a 25% Glut, and a 35% THPS. Stock biocide solutions of various concentrations were made from these biocides as described below.
(§4) The WB Thione stock solutions were prepared by adding 3.0 g of the biocide to 17.0 g of sterile distilled water to form an intermediate solution, followed by combining each intermediate solution with water in the accounts shown in Table 1 below to make the descending concentrations as shown in Table 1.
(§5) The CB Thione stock solutions were prepared by adding 3.0 g of the biocide to 17.0 g of sterile distilled water to form an intermediate solution, followed by combining each intermediate solution with water in the amounts shown in Table 2 below to make the descending concentrations as shown in Table 2.
(§6) The Glut stock solutions were prepared by adding 1.0 g biocide to 19.0 g of sterile distilled water to form an intermediate solution, followed by combining each intermediate solution with water in the amounts shown in Table 3 below to make the descending concentrations as shown in Table 3.
(§7) The THPS stock solutions were prepared by adding 1.0 g of the biocide to 19.0 g of sterile distilled water to form an intermediate solution, followed by combining each intermediate solution with water in the amounts shown in Table 4 below to make the descending concentrations as shown in Table 4.
(§8) Next, 1 g of each biocide stock solution was added to the appropriately labeled 99.0 g aliquot. Also, 1.0 g of sterile water was added to the control aliquot. The concentrations of the biocides present in each aliquot are provided below in Table 5.
(§9) The aliquots were then incubated at room temperature in the dark for the entire study, i.e., 6 months. […] Using sterile syringes, this testing was performed by serial diluting the aliquots into sealed 9.0 mL anaerobic API broth and anaerobic PR broth bottles, both media containing an O2 scavenger, in the appropriate labeled set of SRB bottles (6 for each aliquot) mid AB bottles (6 for each aliquot) until a color change occurred, indicating the log quantity of organisms present in each aliquot.

[2] = test system: sulfate reducing bacteria (SRB); assay: Biocidal effectiveness on sulfate reducing bacteria in spiked frac pond water, serial dilution counts over 180 days with challenges; format: cell-based
Protocol: as §1, §2, §3, §4, §5, §6, §7, §8, §9

[3] = 500 ppm as is (Glut, THPS), 7 Days
[4] = 500 ppm as is (Glut, THPS), 14 Days
[5] = 500 ppm as is (Glut, THPS), 21 Days
[6] = 500 ppm as is (Glut, THPS), 28 Days
[7] = 500 ppm as is (Glut, THPS), 35 Days
[8] = 500 ppm as is (Glut, THPS), 42 Days
[9] = 500 ppm as is (Glut, THPS), 58 Days
[10] = 500 ppm as is (Glut, THPS), 90 Days
[11] = up to 180 days contact time, challenges at 14, 28 and 129 days

In the case of O=S(=O)([O-])[O-].OC[P+](CO)(CO)CO.OC[P+](CO)(CO)CO [THPS, tetra-kis-hydroxymethyly-phosphonium sulfate], the “Log 10 Anaerobic Acid Producing Bacteria/mL” value ([1]; 50 ppm as is, 7 Days) is reported as 5 Log 10 Bacteria/mL, the “Log 10 Anaerobic Acid Producing Bacteria/mL” value ([1]; 50 ppm as is, 14 Days) is reported as “≧6 Log 10 Bacteria/mL” and the “Log 10 Anaerobic Acid Producing Bacteria/mL” value ([1]; 50 ppm as is, 21 Days) is reported as “≧6 Log 10 Bacteria/mL”. The “Log 10 Anaerobic Acid Producing Bacteria/mL” value ([1]; 50 ppm as is, 28 Days) was “≧6 Log 10 Bacteria/mL”, the “Log 10 Anaerobic Acid Producing Bacteria/mL” value ([1]; 50 ppm as is, 35 Days) was “≧6 Log 10 Bacteria/mL” and the “Log 10 Anaerobic Acid Producing Bacteria/mL” value ([1]; 50 ppm as is, 42 Days) was “≧6 Log 10 Bacteria/mL”. For the same compound, the “Log 10 Anaerobic Acid Producing Bacteria/mL” value ([1]; 50 ppm as is, 58 Days) was “≧6 Log 10 Bacteria/mL”, the “Log 10 Anaerobic Acid Producing Bacteria/mL” value ([1]; 50 ppm as is, 90 Days) was “≧6 Log 10 Bacteria/mL” and the “Log 10 Anaerobic Acid Producing Bacteria/mL” value ([1]; 100 ppm as is, 7 Days) was 5 Log 10 Bacteria/mL. The “Log 10 Anaerobic Acid Producing Bacteria/mL” value ([1]; 100 ppm as is, 14 Days) was 5 Log 10 Bacteria/mL, the “Log 10 Anaerobic Acid Producing Bacteria/mL” value ([1]; 100 ppm as is, 21 Days) was “≧6 Log 10 Bacteria/mL” and the “Log 10 Anaerobic Acid Producing Bacteria/mL” value ([1]; 100 ppm as is, 28 Days) was “≧6 Log 10 Bacteria/mL”. The “Log 10 Anaerobic Acid Producing Bacteria/mL” value ([1]; 100 ppm as is, 35 Days) was “≧6 Log 10 Bacteria/mL”, the “Log 10 Anaerobic Acid Producing Bacteria/mL” value ([1]; 100 ppm as is, 42 Days) was “≧6 Log 10 Bacteria/mL” and the “Log 10 Anaerobic Acid Producing Bacteria/mL” value ([1]; 100 ppm as is, 58 Days) was “≧6 Log 10 Bacteria/mL”. For the same compound, the “Log 10 Anaerobic Acid Producing Bacteria/mL” value ([1]; 100 ppm as is, 90 Days) was “≧5 Log 10 Bacteria/mL”, the “Log 10 Anaerobic Acid Producing Bacteria/mL” value ([1]; 200 ppm as is, 7 Days) was 1 Log 10 Bacteria/mL and the “Log 10 Anaerobic Acid Producing Bacteria/mL” value ([1]; 200 ppm as is, 14 Days) was 0 Log 10 Bacteria/mL. The “Log 10 Anaerobic Acid Producing Bacteria/mL” value ([1]; 200 ppm as is, 21 Days) was “≧6 Log 10 Bacteria/mL”, the “Log 10 Anaerobic Acid Producing Bacteria/mL” value ([1]; 200 ppm as is, 28 Days) was “≧6 Log 10 Bacteria/mL” and the “Log 10 Anaerobic Acid Producing Bacteria/mL” value ([1]; 200 ppm as is, 35 Days) was “≧6 Log 10 Bacteria/mL”. For the same compound, the “Log 10 Anaerobic Acid Producing Bacteria/mL” value ([1]; 200 ppm as is, 42 Days) was “≧6 Log 10 Bacteria/mL”, the “Log 10 Anaerobic Acid Producing Bacteria/mL” value ([1]; 200 ppm as is, 58 Days) was “≧6 Log 10 Bacteria/mL” and the “Log 10 Anaerobic Acid Producing Bacteria/mL” value ([1]; 200 ppm as is, 90 Days) was “≧6 Log 10 Bacteria/mL”. The “Log 10 Anaerobic Acid Producing Bacteria/mL” value [1, 3] was 0 Log 10 Bacteria/mL, the “Log 10 Anaerobic Acid Producing Bacteria/mL” value [1, 4] was 0 Log 10 Bacteria/mL and the “Log 10 Anaerobic Acid Producing Bacteria/mL” value [1, 5] was 4 Log 10 Bacteria/mL. The “Log 10 Anaerobic Acid Producing Bacteria/mL” value [1, 6] was 3 Log 10 Bacteria/mL, the “Log 10 Anaerobic Acid Producing Bacteria/mL” value [1, 7] was 4 Log 10 Bacteria/mL and the “Log 10 Anaerobic Acid Producing Bacteria/mL” value [1, 8] was 3 Log 10 Bacteria/mL. The “Log 10 Anaerobic Acid Producing Bacteria/mL” value [1, 9] was “≧6 Log 10 Bacteria/mL”, the “Log 10 Anaerobic Acid Producing Bacteria/mL” value [1, 10] was “≧6 Log 10 Bacteria/mL” and the “control of AB in frac pond water (summary in words)” value [1, 11] was “lost all control of SRB and AB from 1 to 21 days contact time; also recorded: failed after challenging once at 14 days contact time”. The “Log 10 Anaerobic Sulfate Reducing Bacteria/mL” value ([2]; 60 ppm as is (DA), 7 Days) was “≧6 Log 10 Bacteria/mL”, the “Log 10 Anaerobic Sulfate Reducing Bacteria/mL” value ([2]; 60 ppm as is (DA), 14 Days) was “≧6 Log 10 Bacteria/mL” and the “Log 10 Anaerobic Sulfate Reducing Bacteria/mL” value ([2]; 60 ppm as is (DA), 21 Days) was “≧5 Log 10 Bacteria/mL”. For the same compound, the “Log 10 Anaerobic Sulfate Reducing Bacteria/mL” value ([2]; 60 ppm as is (DA), 28 Days) was “≧6 Log 10 Bacteria/mL”, the “Log 10 Anaerobic Sulfate Reducing Bacteria/mL” value ([2]; 60 ppm as is (DA), 35 Days) was “≧6 Log 10 Bacteria/mL” and the “Log 10 Anaerobic Sulfate Reducing Bacteria/mL” value ([2]; 60 ppm as is (DA), 42 Days) was “≧6 Log 10 Bacteria/mL”. The “Log 10 Anaerobic Sulfate Reducing Bacteria/mL” value ([2]; 60 ppm as is (DA), 58 Days) was “≧6 Log 10 Bacteria/mL”, the “Log 10 Anaerobic Sulfate Reducing Bacteria/mL” value ([2]; 60 ppm as is (DA), 90 Days) was “≧6 Log 10 Bacteria/mL” and the “Log 10 Anaerobic Sulfate Reducing Bacteria/mL” value ([2]; 100 ppm as is, 7 Days) was 5 Log 10 Bacteria/mL. The “Log 10 Anaerobic Sulfate Reducing Bacteria/mL” value ([2]; 100 ppm as is, 14 Days) was 5 Log 10 Bacteria/mL, the “Log 10 Anaerobic Sulfate Reducing Bacteria/mL” value ([2]; 100 ppm as is, 21 Days) was “≧5 Log 10 Bacteria/mL” and the “Log 10 Anaerobic Sulfate Reducing Bacteria/mL” value ([2]; 100 ppm as is, 28 Days) was “≧6 Log 10 Bacteria/mL”. The “Log 10 Anaerobic Sulfate Reducing Bacteria/mL” value ([2]; 100 ppm as is, 35 Days) was “≧6 Log 10 Bacteria/mL”, the “Log 10 Anaerobic Sulfate Reducing Bacteria/mL” value ([2]; 100 ppm as is, 42 Days) was “≧6 Log 10 Bacteria/mL” and the “Log 10 Anaerobic Sulfate Reducing Bacteria/mL” value ([2]; 100 ppm as is, 58 Days) was “≧6 Log 10 Bacteria/mL”. The “Log 10 Anaerobic Sulfate Reducing Bacteria/mL” value ([2]; 100 ppm as is, 90 Days) was “≧6 Log 10 Bacteria/mL”, the “Log 10 Anaerobic Sulfate Reducing Bacteria/mL” value ([2]; 200 ppm as is, 7 Days) was 0 Log 10 Bacteria/mL and the “Log 10 Anaerobic Sulfate Reducing Bacteria/mL” value ([2]; 200 ppm as is, 14 Days) was 0 Log 10 Bacteria/mL. For the same compound, the “Log 10 Anaerobic Sulfate Reducing Bacteria/mL” value ([2]; 200 ppm as is, 21 Days) was “≧6 Log 10 Bacteria/mL”, the “Log 10 Anaerobic Sulfate Reducing Bacteria/mL” value ([2]; 200 ppm as is, 28 Days) was “≧6 Log 10 Bacteria/mL” and the “Log 10 Anaerobic Sulfate Reducing Bacteria/mL” value ([2]; 200 ppm as is, 35 Days) was “≧6 Log 10 Bacteria/mL”. For the same compound, the “Log 10 Anaerobic Sulfate Reducing Bacteria/mL” value ([2]; 200 ppm as is, 42 Days) was “≧6 Log 10 Bacteria/mL”, the “Log 10 Anaerobic Sulfate Reducing Bacteria/mL” value ([2]; 200 ppm as is, 58 Days) was “≧6 Log 10 Bacteria/mL” and the “Log 10 Anaerobic Sulfate Reducing Bacteria/mL” value ([2]; 200 ppm as is, 90 Days) was “≧6 Log 10 Bacteria/mL”. The “Log 10 Anaerobic Sulfate Reducing Bacteria/mL” value [2, 3] was 0 Log 10 Bacteria/mL, the “Log 10 Anaerobic Sulfate Reducing Bacteria/mL” value [2, 4] was 0 Log 10 Bacteria/mL and the “Log 10 Anaerobic Sulfate Reducing Bacteria/mL” value [2, 5] was 4 Log 10 Bacteria/mL. The “Log 10 Anaerobic Sulfate Reducing Bacteria/mL” value [2, 6] was 3 Log 10 Bacteria/mL, the “Log 10 Anaerobic Sulfate Reducing Bacteria/mL” value [2, 7] was 3 Log 10 Bacteria/mL and the “Log 10 Anaerobic Sulfate Reducing Bacteria/mL” value [2, 8] was “≧6 Log 10 Bacteria/mL”. For the same compound, the “Log 10 Anaerobic Sulfate Reducing Bacteria/mL” value [2, 9] was “≧6 Log 10 Bacteria/mL”, the “Log 10 Anaerobic Sulfate Reducing Bacteria/mL” value [2, 10] was “≧6 Log 10 Bacteria/mL” and the “control of SRB in frac pond water (summary in words)” value [2, 11] was “lost all control of SRB and AB from 1 to 21 days contact time; also recorded: failed completely after challenging once at 14 days contact time at all concentrations”.
